The values that follow come from paper PMC4477702 (The Biochemical journal, 2015).

In assay [1] the target is T1, Arabidopsis (At) COG3236 domain of RIBR (Arabidopsis thaliana, UniProt Q9STY4).
T1 sequence (Q9STY4 405-599 limits assumed): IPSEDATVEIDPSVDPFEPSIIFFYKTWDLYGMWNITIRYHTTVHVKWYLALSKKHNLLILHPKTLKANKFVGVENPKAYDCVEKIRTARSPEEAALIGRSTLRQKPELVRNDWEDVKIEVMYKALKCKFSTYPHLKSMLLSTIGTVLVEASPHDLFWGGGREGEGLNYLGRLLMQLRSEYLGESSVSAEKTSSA
The assay is described as follows: HPLC-UV product formation. The note with it: pH 8.0, 22°C, 1 h. The assay is classed as biochemical.

In assay [2] the target is T2, N. punctiforme (Np) COG3236 (Nostoc punctiforme, UniProt B2J4E5).
T2 sequence (B2J4E5 1-156): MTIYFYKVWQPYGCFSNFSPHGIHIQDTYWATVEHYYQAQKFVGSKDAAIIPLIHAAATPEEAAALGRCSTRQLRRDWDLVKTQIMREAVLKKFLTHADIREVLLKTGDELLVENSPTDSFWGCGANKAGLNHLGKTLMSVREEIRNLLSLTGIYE
Put plainly: HPLC-UV product formation. The format is biochemical. Conditions: pH 8.0, 22°C, 1 h.

For `Nc1c(N[C@@H]2O[C@H](COP(=O)(O)O)[C@@H](O)[C@H]2O)[nH]c(=O)[nH]c1=O` (mixture of isomers) [compound 2, 5-amino-6-ribosylamino-2,4(1H,3H)-pyrimidinedione 5′-phosphate], in assay [1] (2.4 mM substrate, 0.1 μg protein), the “HPLC-UV product formation; diacetyl derivatization” value was “All five COG3236 proteins gave rise to a new HPLC peak when mixed with intermediate”. In assay [2] (2.4 mM substrate, 1 μg protein), the HPLC-UV product formation entry is recorded as “All five COG3236 proteins gave rise to a new HPLC peak when mixed with intermediate”.

On to `Nc1nc(N[C@@H]2O[C@H](COP(=O)(O)O)[C@@H](O)[C@H]2O)c(N)c(=O)[nH]1` (mixture of isomers) [compound 1, 2,5-diamino-6-ribosylamino-4(3H)-pyrimidinone 5′-phosphate], for which the “HPLC-UV product formation; diacetyl derivatization” value in assay [1] (3 mM substrate, 30 μg protein) is given as “All five COG3236 proteins gave rise to a new HPLC peak when mixed with intermediate”. Also, the HPLC-UV product formation entry in assay [2] (3 mM substrate, 30 μg protein) is reported as “All five COG3236 proteins gave rise to a new HPLC peak when mixed with intermediate”.
